From PubChem BioAssay (NCI) come the findings set out here.

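Cells were grown in 96-well plates and exposed to each compound for 48 hours at five concentrations; endpoints were interpolated linearly between bracketing concentrations, or set to the highest concentration if not reached. At the GI50, growth is halved. TGI denotes the concentration required for complete inhibition of growth.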 Bounds are passed on as bounds.

Test systems include COLO 205 colon; HCT-15 colon; HL-60(TB) leukemia; KM12 colon; MALME-3M melanoma; OVCAR-3 ovarian; OVCAR-8 ovarian; T-47D breast.
What all share (assay): inhibition of tumour cell growth, NCI panel, 48 h

Consider `CCN(CC)CCOC(COc1cc(C)cc(C)c1)COc1cc(C)cc(C)c1`, for which the GI50 in the experiment with COLO 205 colon was 1.65 µM; with HCT-15 colon, 3.01 µM; in the experiment on HL-60(TB) leukemia, 1.94 µM; in the experiment with KM12 colon it was 3.04 µM; with MALME-3M melanoma, 1.88 µM; in the experiment on OVCAR-3 ovarian, 3.46 µM. The results for the GI50 with OVCAR-8 ovarian and in the experiment with T-47D breast were 7.23 µM and 2.34 µM, respectively. The TGI was found to be 3.52 µM in the experiment with COLO 205 colon; 12.4 µM in the experiment on HCT-15 colon; 4.48 µM in the experiment on HL-60(TB) leukemia; 11.7 µM in the experiment on KM12 colon; 3.86 µM with MALME-3M melanoma; 13 µM in the experiment on OVCAR-3 ovarian. In addition, the TGI stood at 22.2 µM with OVCAR-8 ovarian and 6.83 µM in the experiment on T-47D breast.
In the case of `Cc1cc(C)c2nc3c(c(C(O)C4CCCCN4)c2c1)CC/C3=C\c1ccc(Cl)cc1` (configuration not stated), the TGI in the experiment on COLO 205 colon was over 100 µM; with HCT-15 colon, over 100 µM; in the experiment with HL-60(TB) leukemia it was 67.6 µM; in the experiment with KM12 colon, over 100 µM; in the experiment with MALME-3M melanoma, over 100 µM; in the experiment on OVCAR-3 ovarian, over 100 µM. In addition, the TGI in the experiment with OVCAR-8 ovarian and in the experiment with T-47D breast was over 100 µM throughout.
Consider `CC1(C)CC(O)CC(C)(C)N1O`, for which the TGI with COLO 205 colon, in the experiment with HCT-15 colon, in the experiment with HL-60(TB) leukemia, with KM12 colon, with MALME-3M melanoma and with OVCAR-3 ovarian was over 100 µM in each case. The TGI in the experiment on OVCAR-8 ovarian and in the experiment on T-47D breast was over 100 µM in each case. Further, the GI50 with HL-60(TB) leukemia was over 100 µM.
`O=c1[nH]c2cc(Cl)ccc2nc1/C(=N\Nc1ccccc1)C(O)c1ccc2c(c1)OCO2` (configuration not stated): the TGI in the experiment with COLO 205 colon, in the experiment with HCT-15 colon, in the experiment on HL-60(TB) leukemia, in the experiment with KM12 colon, with MALME-3M melanoma and with OVCAR-3 ovarian was over 100 µM in each case. Moreover, the TGI in the experiment on OVCAR-8 ovarian and with T-47D breast was over 100 µM throughout.
For `[Br][Pb]([c]1ccccc1)([c]1ccccc1)[c]1ccccc1`, the GI50 in the experiment on COLO 205 colon was 0.177 µM; in the experiment on HCT-15 colon, 0.148 µM; in the experiment with HL-60(TB) leukemia, 0.19 µM; in the experiment on KM12 colon, 0.356 µM; with MALME-3M melanoma, 0.183 µM; in the experiment on OVCAR-3 ovarian it was 0.139 µM. Besides, the GI50 was 0.186 µM in the experiment with OVCAR-8 ovarian and 0.143 µM with T-47D breast. Moreover, the TGI in the experiment on COLO 205 colon turned out to be 0.356 µM; with HCT-15 colon it was 0.329 µM; in the experiment on HL-60(TB) leukemia it was 0.498 µM; with KM12 colon, 1.21 µM; in the experiment with MALME-3M melanoma, 0.39 µM; in the experiment on OVCAR-3 ovarian, 0.272 µM. Besides, the TGI in the experiment with OVCAR-8 ovarian was 0.384 µM; in the experiment on T-47D breast, 0.318 µM.
Take `Nc1ccc(CC[C@H]2CCC/C=C/[C@@H]3C[C@H](O)C[C@H]3[C@H](O)/C=C/C(=O)O2)cc1`: the GI50 was 0.0188 µM with COLO 205 colon; 0.0455 µM with HCT-15 colon; 0.0535 µM in the experiment on HL-60(TB) leukemia; 0.0235 µM with KM12 colon; 0.0731 µM in the experiment with MALME-3M melanoma; 0.0282 µM in the experiment with OVCAR-3 ovarian. In addition, the GI50 in the experiment on OVCAR-8 ovarian is 0.0407 µM; in the experiment with T-47D breast, 0.0751 µM. Further, the TGI was determined as 0.034 µM in the experiment on COLO 205 colon; 16.7 µM with HCT-15 colon; 1.55 µM in the experiment on HL-60(TB) leukemia; 0.0615 µM in the experiment with KM12 colon; 0.543 µM with MALME-3M melanoma; 0.0769 µM in the experiment on OVCAR-3 ovarian. The TGI in the experiment on OVCAR-8 ovarian and in the experiment on T-47D breast was over 100 µM in each case.
As to `CCSC[C@@H]1C[C@](O)(c2ccccc2)[C@@H](c2ccccc2)O1`, the GI50 was over 78.9 µM in the experiment with COLO 205 colon; 82.1 µM in the experiment on HCT-15 colon; 9.84 µM in the experiment with HL-60(TB) leukemia; over 75.8 µM with KM12 colon; over 100 µM with MALME-3M melanoma; 70.1 µM in the experiment on OVCAR-3 ovarian. Also, the GI50 with OVCAR-8 ovarian is over 100 µM; in the experiment on T-47D breast, 49 µM. In addition, the TGI in the experiment with COLO 205 colon was over 100 µM; in the experiment on HCT-15 colon, over 100 µM; in the experiment on HL-60(TB) leukemia, over 50.7 µM; with KM12 colon it was over 100 µM; in the experiment on MALME-3M melanoma, over 100 µM; with OVCAR-3 ovarian, over 100 µM. Moreover, the TGI in the experiment on OVCAR-8 ovarian and with T-47D breast was over 100 µM throughout.
Turning to `S=c1ssnc1-c1cc2ccccc2o1`, the GI50 was 14.8 µM with COLO 205 colon; 11.5 µM with HCT-15 colon; 14 µM in the experiment with HL-60(TB) leukemia; 14.1 µM in the experiment on KM12 colon; 20.7 µM in the experiment with MALME-3M melanoma; 15.6 µM in the experiment with OVCAR-3 ovarian. Also, the GI50 is 11.3 µM with OVCAR-8 ovarian and 21.9 µM in the experiment with T-47D breast. In addition, the TGI with COLO 205 colon was 39.5 µM; with HCT-15 colon, 25.5 µM; with HL-60(TB) leukemia, over 100 µM; in the experiment with KM12 colon it was 35.1 µM; in the experiment with MALME-3M melanoma, 46.8 µM; in the experiment on OVCAR-3 ovarian, 49.2 µM. Moreover, the results for the TGI in the experiment with OVCAR-8 ovarian and in the experiment on T-47D breast were 29.4 µM and over 100 µM, respectively.
On to `O=C(O)CNc1ccc2c(c1)Cc1cc(Br)ccc1-2`, for which the TGI with COLO 205 colon was over 71 µM; in the experiment on HCT-15 colon it was over 100 µM; in the experiment with HL-60(TB) leukemia, over 100 µM; in the experiment with KM12 colon, 50.7 µM; with MALME-3M melanoma, over 67.9 µM; in the experiment on OVCAR-3 ovarian it was over 100 µM. Besides, the TGI with OVCAR-8 ovarian and in the experiment on T-47D breast was over 100 µM in each case.
As for `N[C@@H]1CCCN(c2c(Br)cnc3[nH]cc(NC(=O)C4CC4)c23)C1`, the GI50 was 2.27 µM in the experiment on COLO 205 colon; 0.54 µM in the experiment with HCT-15 colon; 0.318 µM in the experiment on HL-60(TB) leukemia; 0.67 µM with KM12 colon; 1.27 µM in the experiment on MALME-3M melanoma; 0.364 µM in the experiment on OVCAR-3 ovarian. Moreover, the GI50 in the experiment on OVCAR-8 ovarian was 0.51 µM; in the experiment with T-47D breast it was 38.2 µM. Besides, the TGI in the experiment on COLO 205 colon was 59 µM; in the experiment on HCT-15 colon it was over 100 µM; with HL-60(TB) leukemia, 4.51 µM; in the experiment with KM12 colon, over 100 µM; in the experiment with MALME-3M melanoma, over 100 µM; in the experiment with OVCAR-3 ovarian it was over 100 µM. The TGI with OVCAR-8 ovarian and in the experiment on T-47D breast was over 100 µM throughout.
Consider `O=c1ccc(N=Nc2ccccc2)ccc1O`, for which the TGI in the experiment with COLO 205 colon came to 31.7 µM; in the experiment with HCT-15 colon, 19.8 µM; in the experiment with HL-60(TB) leukemia it was 51.2 µM; with KM12 colon, 24.9 µM; with MALME-3M melanoma, 27.9 µM; in the experiment with OVCAR-3 ovarian, 22 µM. For the same compound, the TGI in the experiment on OVCAR-8 ovarian was 43.9 µM; with T-47D breast, 42.4 µM.
